Source: patent US12540150B1, “Fluorogenic probe using a Mislow-Evans rearrangement for real-time imaging of hydrogen peroxide” (University of Pittsburgh—Of the Commonwealth System of …, priority 2020, dated 2026)
Several values for one entry are separate records, joined by “and”; a condition that tells them apart may be missing. Identical values can stand only once.

Columns and labels:
[1] = Kinetics of the reaction of 1 with H2O2; settings: [H2O2] = 2.5 mM
[2] = Selectivity of 1: reaction with O2^·−; settings: for Fluorescence Intensity: 15 min
Experimental: Following the concentration dependence studies, the selectivity of 1 was assessed against O2^·−, ^1O2, ·OH, ClO^−, ONOO^−, 'BuOOH, NO3^−, NO2, and NO·. […] The production of some of these ROS required H2O2 as a reagent or generated H2O2 as a product, for which we carefully performed control experiments as detailed below. For example, a solution of 100 μM 1 in ethanol (20 μL) was added to 5:95 methanol/50 mM phosphate pH 7 buffer (140 μL). […] A control containing 100 μM 1 in ethanol (20 μL), 5:95 methanol/50 mM phosphate pH 7 buffer (160 μL), and 700 mM H2O2 (20 μL) was also generated. The solutions were allowed to incubate at 25° C. for 15 min prior to measuring fluorescence. […] Therefore, 1 is selective for H2O2 over O2^·−.

[3] = Selectivity of 1: reaction with NO2^−; settings: for Fluorescence: change over first 15 min
Experimental: It was then sought to determine whether RNS would react with 1 to produce fluorescence. The probe 1 was first exposed to NO2^− at various concentrations. NaNO2 (97.0 mg) was dissolved in ultrapure water (2.00 mL). […] A solution of 100 μM 1 in ethanol (20 μL) was added to 5:95 methanol/50 mM phosphate pH 7 buffer (160 μL). The NaNO2 or H2O2 solutions (20 μL) were added to the solution containing 1 and the fluorescence intensity was measured immediately and again after incubation at 25° C. for 15 min. The fluorescence change over the first 15 min was reported for NO2^− in FIG. 20 and Table 11.

[4] = Selectivity of 1: reaction with ^1O2; settings: for Fluorescence: 40 min minus 0 min
Experimental: Probe 1 was titrated with NaMoO4 and H2O2 to determine whether ^1O2 reacted with the probe 1. A solution of 100 μM 1 in ethanol (20 μL) was added to 5:95 methanol/50 mM phosphate pH 7 buffer (140 μL). Water, 1 mM sodium azide, or 104 U/mL catalase (20 μL) was added to the mixture. NaMoO4·2H2O (11.1 mg) was added to ultrapure water (2.00 mL). This solution was diluted to 20 μM, 200 μM, and 2.00 mM. H2O2 was diluted to 200 μM and 2.00 mM. Equal volumes of NaMoO4 solution and H2O2 were added together, and an aliquot (20 μL) was immediately transferred to the solution containing 1. The fluorescence intensity was measured immediately and again after incubation at 25° C. for 40 min. A large fluorescence increase was observed only in the samples containing […] of both Na2MoO4 and H2O2(FIG. 16 and Table 7). […] 10^4 UmL^−1 catalase was added to the solutions to verify that 1 indeed responded to excess H2O2 that had not reacted with the Na2MoO4. The addition of catalase abolished the fluorescence signal observed in the presence of high concentrations of H2O2(FIG. 16 and Table 7). The fluorescence values in Table 7 are the fluorescence at 40 min minus the fluorescence at 0 min.

SMILES: Oc1ccc2c(c1)Oc1cc(O/C=C/C[Se]c3ccccc3)ccc1[C@@]21OCc2ccccc21 [Compound 1, (S,E)-6′-((3-(Phenylselanyl)prop-1-en-1-yl)oxy)-3H-spiro[isobenzofuran-1,9′-xanthen]-3′-ol]
- F-F0 (515 nm) ([1]; 30 s): 425,024 and 405,551 and 398,309
- [1] ([1]; 30 s): 0.6285 µM and 0.6785 µM and 0.6971 µM
- F-F0 (515 nm) ([1]; 90 s): 539,467 and 612,814 and 630,136
- F-F0 (515 nm) ([1]; 150 s): 601,940 and 657,981 and 671,946
- F-F0 (515 nm) ([1]; 210 s): 627,168 and 666,435 and 680,181
- F-F0 (515 nm) ([1]; 270 s): 636,230 and 665,190 and 679,366
- F-F0 (515 nm) ([1]; 330 s): 638,753 and 666,173 and 674,138
- F-F0 (515 nm) ([1]; 390 s): 641,141 and 663,899 and 664,993
- F-F0 (515 nm) ([1]; 450 s): 640,270 and 661,893 and 664,416
- F-F0 (515 nm) ([1]; 510 s): 639,383 and 659,509 and 664,003
- F-F0 (515 nm) ([1]; 570 s): 637,346 and 658,746 and 663,104
- F-F0 (515 nm) ([1]; 630 s): 637,422 and 656,826 and 661,222
- F-F0 (515 nm) ([1]; 690 s): 636,174 and 654,911 and 659,002
- F-F0 (515 nm) ([1]; 750 s): 634,294 and 654,494 and 657,410
- F-F0 (515 nm) ([1]; 810 s): 631,953 and 653,606 and 654,988
- F-F0 (515 nm) ([1]; 870 s): 631,346 and 651,140 and 655,338
- reaction with O2^·− [2]: did not react
- Fluorescence Intensity ([2]; KO2 + 10 U/mL catalase, pH 7, 25° C.): 104,768 and 72,151 and 98,514
- Fluorescence Intensity ([2]; KO2 + 10^4 U/mL catalase, pH 7, 25° C.): 63,553 and 41,950 and 67,009
- Fluorescence Intensity ([2]; KO2, phosphate pH 7, 25° C.): 106,099 and 92,938 and 99,300
- reaction with NO2^− [3]: did not react
- Fluorescence ([3]; 0 μM NO2^− or H2O2, pH 7, 25° C.): 24,359 and 26,870 and 26,226
- Fluorescence ([3]; 0.1 μM H2O2): 58,172 and 52,104 and 52,249
- Fluorescence ([3]; 0.1 μM NO2^−): 31,075 and 36,429 and 27,504
- Fluorescence ([3]; 1 μM H2O2): 266,770 and 242,313 and 222,834
- Fluorescence ([3]; 1 μM NO2^−): 26,768 and 31,470 and 33,004
- cause of fluorescence increase (reaction with ^1O2) [4]: not by ^1O2 itself
- Fluorescence ([4]; NaN3, NaMoO4 0 μM, 0 μM H2O2): 47,427 and 27,816 and 33,822
- Fluorescence ([4]; NaN3, NaMoO4 0 μM, 10 μM H2O2): 22,037 and 25,574 and 26,509
- Fluorescence ([4]; NaN3, NaMoO4 0 μM, 100 μM H2O2): 86,779 and 47,879 and 71,128
- Fluorescence ([4]; NaN3, NaMoO4 1 μM, 0 μM H2O2): 17,056 and 15,590 and 28,737
- Fluorescence ([4]; NaN3, NaMoO4 1 μM, 10 μM H2O2): 47,687 and 30,921 and 55,460
- Fluorescence ([4]; NaN3, NaMoO4 1 μM, 100 μM H2O2): 75,276 and 58,618 and 52,801
- Fluorescence ([4]; NaN3, NaMoO4 10 μM, 0 μM H2O2): 48,985 and 26,189 and 39,286
- Fluorescence ([4]; NaN3, NaMoO4 10 μM, 10 μM H2O2): 41,011 and 44,837 and 41,481
- Fluorescence ([4]; NaN3, NaMoO4 10 μM, 100 μM H2O2): 128,720 and 99,199 and 137,922
- Fluorescence ([4]; NaN3, NaMoO4 100 μM, 0 μM H2O2): 41,150 and 60,360 and 31,422
- Fluorescence ([4]; NaN3, NaMoO4 100 μM, 10 μM H2O2): 36,764 and 62,417 and 61,596
- Fluorescence ([4]; NaN3, NaMoO4 100 μM, 100 μM H2O2): 427,359 and 459,433 and 473,881
- Fluorescence ([4]; catalase, NaMoO4 1 μM, 100 μM H2O2): 54,776 and 34,302 and 31,904
- Fluorescence ([4]; catalase, NaMoO4 10 μM, 100 μM H2O2): 66,499 and 39,161 and 54,221
- Fluorescence ([4]; catalase, NaMoO4 100 μM, 100 μM H2O2): 137,047 and 103,725 and 102,097
- Fluorescence ([4]; no additive, NaMoO4 0 μM, 0 μM H2O2): 59,711 and 30,413 and 38,407
- Fluorescence ([4]; no additive, NaMoO4 0 μM, 100 μM H2O2): 48,948 and 86,970 and 68,803
- Fluorescence ([4]; no additive, NaMoO4 1 μM, 0 μM H2O2): 36,829 and 38,478 and 40,456
- Fluorescence ([4]; no additive, NaMoO4 1 μM, 10 μM H2O2): 27,103 and 23,437 and 25,142
- Fluorescence ([4]; no additive, NaMoO4 1 μM, 100 μM H2O2): 64,673 and 74,322 and 79,262
- Fluorescence ([4]; no additive, NaMoO4 10 μM, 10 μM H2O2): 33,243 and 34,233 and 26,543
- Fluorescence ([4]; no additive, NaMoO4 10 μM, 100 μM H2O2): 113,217 and 132,450 and 119,014
- Fluorescence ([4]; no additive, NaMoO4 100 μM, 0 μM H2O2): 24,734 and 26,617 and 17,702
- Fluorescence ([4]; no additive, NaMoO4 100 μM, 10 μM H2O2): 38,768 and 55,874 and 53,722
- Fluorescence ([4]; no additive, NaMoO4 100 μM, 100 μM H2O2): 468,686 and 476,166 and 482,448
